Source: patent US20100227921A1, “AMINO ACID AND PEPTIDE CARBAMATE PRODRUGS OF […] USES THEREOF” (SHIRE LLC, priority 2009, published 2010)
Values joined by “and” are separate entries in the source; they are usually repeats but may differ in a detail not shown here. Equal entries are not always repeated. Where two headings read alike, the source gives them in different places. Marks after values point to notes of the source that are not given here.

Key:
[1] = test system: guinea pig small intestine myenteric plexus longitudinal muscle; assay: Electrical field stimulation response of isolated guinea pig small intestine smooth muscle (ex vivo); conditions: isolated guinea pig ileum
Description: Strips of guinea pig small intestine myenteric plexus longitudinal muscle and mounted between platinum ring electrodes. The tissue was stretched to a steady tension of about 1 g and changes in force production were recorded using sensitive transducers.
The optimal voltage for stimulation was determined while the tissue was paced with electrical field stimulation (EFS) at 14 Hz, with a pulse width of 0.5 msec (Trains of pulses for 20 seconds, every 50 seconds).
EFS at optimal voltage continued throughout the protocol (stable responses=“baseline measurement of EFS”).
The 3 test conditions employed were as follows:
(1) Vehicle (deionised water, added at equivalent volume additions to test articles), (2) Tapentadol at 6 concentrations (10 nM, 100 nM, 1 μM, 3 μM, 10 μM & 30 μM) (3) Tapentadol valine carbamate at 6 concentrations (10 nM, 100 nM, 1 μM, 3 μM, 10 μM, & 30 μM).
Following 10 minutes of baseline EFS, first addition of test article or vehicle (deionized water) was performed.
Test concentrations were added in a non-cumulative manner with PSS washes between each addition. Next, TTX (Na+ channel blocker) was added to confirm EFS responses were elicited via nerve stimulation. EFS was then stopped.

[2] = Comparative in vivo bioavailability study in the dog (oral gavage, plasma LC-MS-MS)
Description: Test substances (i.e., tapentadol (1 mg/kg) and tapentadol valine carbamate (0.8 mg tapentadol base equivalents/kg)) were administered by oral gavage to a group of five dogs (dog nos. 1, 2, 3, 4 and 5) in a two-way crossover design. The characteristics of the test animals are set out in Table 3.
Blood samples were taken at various times after administration and submitted to analysis for the parent drug and pro-drug using a validated LC-MS-MS assay. Pharmacokinetic parameters derived from the plasma analytical data were determined using Win Nonlin.

[3] = Comparative bioavailability after oral or intravenous administration to monkeys (plasma LC-MS-MS); assay type: in vivo, cynomolgus monkey; conditions: male monkey
Description: Test substances i.e., tapentadol and tapentadol valine carbamate were administered (either intravenously or orally) to a group of five male cynomolgus monkeys in a three way crossover design. The oral doses were given at 1 mg tapentadol base equivalents/kg while the intravenous dose was 0.5 mg/kg
Blood samples were taken at various times after administration and submitted to analysis for the parent drug and tapentadol valine carbamate using a validated LC-MS-MS assay. Pharmacokinetic parameters derived from the plasma analytical data were determined using Win Nonlin.

[4] = oral tapentadol valine carbamate 0.8 mg tapentadol base equiv/kg, individual dogs 1-5
[5] = i.v. tapentadol valine carbamate 0.5 mg tapentadol free base equiv/kg, individual animals 1-5
[6] = oral tapentadol valine carbamate 1 mg tapentadol free base equiv/kg, individual animals 1-5

With `CC[C@H](c1cccc(OC(=O)N[C@H](C(=O)O)C(C)C)c1)[C@H](C)CN(C)C` (racemic) [Tapentadol valine carbamate, 2-[3-(3-Dimethylamino-1-ethyl-2-methyl-propyl)-phenoxycarbonylamino]-3-methyl-butyric acid] the EC50 ([1]; Cavia porcellus, EFS 14 Hz, non-cumulative 10 nM-30 μM, read-out: approximate EC50, effect on electrical field stimulation response) was ~10 µM, the “reduction in the opioid effects on ileal smooth muscle compared to tapentadol” value ([1]; EFS) was 50 fold and the half-life ([2]; Beagle, plasma, po, 0.8 mg/kg, oral tapentadol valine carbamate 0.8 mg tapentadol base equiv/kg, calculated as ln2/mean k, read-out: t½ of tapentadol valine carbamate (converted)) was 4.8 h. For the same molecule, the Cmax ([2]; Beagle, plasma, po, 0.8 mg/kg, oral tapentadol valine carbamate 0.8 mg tapentadol base equiv/kg, individual dogs 1-5, read-out: Cmax of tapentadol valine carbamate) was 0.0428 µg/mL, the AUC ([2]; Beagle, plasma, po, 0.8 mg/kg, oral tapentadol valine carbamate 0.8 mg tapentadol base equiv/kg, mean of 5 dogs, read-out: AUC of tapentadol valine carbamate) was 0.205 µg·h/mL and the AUC(0-t) ([2]; Beagle, plasma, po, 0.8 mg/kg, oral tapentadol valine carbamate 0.8 mg tapentadol base equiv/kg, mean of 5 dogs, read-out: AUCt of tapentadol valine carbamate) was 0.192 µg·h/mL. The Cmax ([2]; Beagle, plasma, po, 0.8 mg/kg, oral tapentadol valine carbamate 0.8 mg tapentadol base equiv/kg, mean of 5 dogs, read-out: Cmax of tapentadol valine carbamate) was 0.0534 µg/mL, the Tmax ([2]; Beagle, plasma, po, 0.8 mg/kg, oral tapentadol valine carbamate 0.8 mg tapentadol base equiv/kg, median of 5 dogs, read-out: Tmax of tapentadol valine carbamate) was 1 h and the “increase of duration of sustainment of active drug in the blood” value ([2]; following administration of the prodrug compared to tapentadol alone) was “two to three fold”. The “duration of drug sustainment in plasma” value ([2]; oral prodrug vs oral tapentadol) was “doubling”, the “AUC of tapentadol valine carbamate” value [2, 4] was 0.157 µg·h/mL and 0.126 µg·h/mL and 0.272 µg·h/mL and 0.221 µg·h/mL and 0.252 µg·h/mL and the “AUCt of tapentadol valine carbamate” value [2, 4] was 0.131 µg·h/mL and 0.119 µg·h/mL and 0.26 µg·h/mL and 0.208 µg·h/mL and 0.241 µg·h/mL. For the same molecule, the “Cmax of tapentadol valine carbamate” value [2, 4] was 0.0453 µg/mL and 0.0623 µg/mL and 0.0464 µg/mL and 0.07 µg/mL, the “T>50%Cmax of tapentadol valine carbamate” value [2, 4] was 1.5 h (4×) and 0.5 h and the “Tmax of tapentadol valine carbamate” value [2, 4] was 2 h. The “t½ of tapentadol valine carbamate” value [2, 4] was 6.7 h and 3.0 h and 5.0 h and 5.9 h and 5.3 h, the “T>50%Cmax of tapentadol valine carbamate” value ([2]; oral tapentadol valine carbamate 0.8 mg tapentadol base equiv/kg, median of 5 dogs) was 1.5^a h and the concentration at 0.083 h ([3]; cynomolgus monkey, plasma, iv, i.v. tapentadol valine carbamate 0.5 mg tapentadol free base equiv/kg, 0.083 h, individual animals 1-5) was 0.79 µg/mL. For the same molecule, the concentration at 0.25 h ([3]; cynomolgus monkey, plasma, iv, i.v. tapentadol valine carbamate 0.5 mg tapentadol free base equiv/kg, 0.25 h, individual animals 1-5) was 0.783 µg/mL, the concentration at 1 h ([3]; cynomolgus monkey, plasma, iv, i.v. tapentadol valine carbamate 0.5 mg tapentadol free base equiv/kg, 1 h, individual animals 1-5) was 0.222 µg/mL and the concentration at 2 h ([3]; cynomolgus monkey, plasma, iv, i.v. tapentadol valine carbamate 0.5 mg tapentadol free base equiv/kg, 2 h, individual animals 1-5) was 0.0923 µg/mL. The concentration at 4 h ([3]; cynomolgus monkey, plasma, iv, i.v. tapentadol valine carbamate 0.5 mg tapentadol free base equiv/kg, 4 h, individual animals 1-5) was 0.0118 µg/mL, the concentration at 6 h ([3]; cynomolgus monkey, plasma, iv, i.v. tapentadol valine carbamate 0.5 mg tapentadol free base equiv/kg, 6 h, individual animals 1-5) was 0.00321 µg/mL and the “Plasma concentration of tapentadol valine carbamate” value (“Plasma concentration” below) ([3]; i.v. tapentadol valine carbamate 0.5 mg tapentadol free base equiv/kg, 0 h, individual animals 1-5) was “BLQ (BLQ Values less than LOQ (<0.5 ng/mL))”. For the same molecule, the “Plasma concentration” value ([3]; i.v. tapentadol valine carbamate 0.5 mg tapentadol free base equiv/kg, 0.083 h, individual animals 1-5) was 0.951 µg/mL and 0.914 µg/mL and 1.166 µg/mL and 1.024 µg/mL, the “Plasma concentration” value ([3]; i.v. tapentadol valine carbamate 0.5 mg tapentadol free base equiv/kg, 0.25 h, individual animals 1-5) was 0.825 µg/mL and 0.848 µg/mL and 0.427 µg/mL and 0.672 µg/mL and the “Plasma concentration” value ([3]; i.v. tapentadol valine carbamate 0.5 mg tapentadol free base equiv/kg, 0.5 h, individual animals 1-5) was 0.1198 µg/mL and 0.576 µg/mL and 0.62 µg/mL and 0.609 µg/mL and 0.43 µg/mL. For the same molecule, the “Plasma concentration” value ([3]; i.v. tapentadol valine carbamate 0.5 mg tapentadol free base equiv/kg, 1 h, individual animals 1-5) was 0.205 µg/mL and 0.326 µg/mL and 0.274 µg/mL and 0.251 µg/mL, the “Plasma concentration” value ([3]; i.v. tapentadol valine carbamate 0.5 mg tapentadol free base equiv/kg, 2 h, individual animals 1-5) was 0.1121 µg/mL and 0.1155 µg/mL and 0.0856 µg/mL and 0.0877 µg/mL and the “Plasma concentration” value ([3]; i.v. tapentadol valine carbamate 0.5 mg tapentadol free base equiv/kg, 4 h, individual animals 1-5) was 0.02 µg/mL and 0.0214 µg/mL and 0.0122 µg/mL and 0.0146 µg/mL. For the same molecule, the “Plasma concentration” value ([3]; i.v. tapentadol valine carbamate 0.5 mg tapentadol free base equiv/kg, 6 h, individual animals 1-5) was 0.00494 µg/mL and 0.0061 µg/mL and 0.00348 µg/mL and 0.0042 µg/mL, the “Plasma concentration” value ([3]; i.v. tapentadol valine carbamate 0.5 mg tapentadol free base equiv/kg, 9 h, individual animals 1-5) was 0.00104 µg/mL and 0.000769 µg/mL and 0.00189 µg/mL and 0.0012 µg/mL and 0.00135 µg/mL and the “AUC of tapentadol valine carbamate” value [3, 5] was 0.926 µg·h/mL and 1.05 µg·h/mL and 0.915 µg·h/mL and 0.846 µg·h/mL. The “AUCt of tapentadol valine carbamate” value [3, 5] was 0.925 µg·h/mL and 1.04 µg·h/mL and 0.912 µg·h/mL and 0.843 µg·h/mL, the “C0 of tapentadol valine carbamate” value [3, 5] was 0.794 µg/mL and 1.02 µg/mL and 0.949 µg/mL and 1.93 µg/mL and 1.26 µg/mL and the “CL of tapentadol valine carbamate” value [3, 5] was 0.540 L/h/kg and 0.478 L/h/kg and 0.547 L/h/kg and 0.491 L/h/kg. For the same molecule, the “Vss of tapentadol valine carbamate” value [3, 5] was 0.529 L/kg and 0.499 L/kg and 0.481 L/kg and 0.562 L/kg, the “t½ of tapentadol valine carbamate” value [3, 5] was 1.1 h and the “AUC of tapentadol valine carbamate” value [3, 6] was 0.219 µg·h/mL and 0.367 µg·h/mL and 0.368 µg·h/mL and 0.048 µg·h/mL and 0.436 µg·h/mL. For the same molecule, the “AUCt of tapentadol valine carbamate” value [3, 6] was 0.216 µg·h/mL and 0.351 µg·h/mL and 0.358 µg·h/mL and 0.187 µg·h/mL and 0.432 µg·h/mL, the “Cmax of tapentadol valine carbamate” value [3, 6] was 0.15 µg/mL and 0.176 µg/mL and 0.153 µg/mL and 0.0921 µg/mL and 0.249 µg/mL and the “T>50%Cmax of tapentadol valine carbamate” value [3, 6] was 0.5 h (4×) and 1 h. The “t½ of tapentadol valine carbamate” value [3, 6] was 3.35 h and 2.48 h and 1.86 h and 2.88 h, the “T>50%Cmax of tapentadol valine carbamate” value ([3]; oral tapentadol valine carbamate 1 mg tapentadol free base equiv/kg, median) was 0.5^a h and the “Plasma concentration” value ([3]; oral tapentadol valine carbamate 10 mg tapentadol free base equiv/kg, 0.5 h, individual animals 1-5) was 0.15 µg/mL and 0.176 µg/mL and 0.153 µg/mL and 0.0347 µg/mL and 0.249 µg/mL. The “Plasma concentration” value ([3]; oral tapentadol valine carbamate 10 mg tapentadol free base equiv/kg, 0.5 h, mean) was 0.153 µg/mL, the “Plasma concentration” value ([3]; oral tapentadol valine carbamate 10 mg tapentadol free base equiv/kg, 1 h, individual animals 1-5) was 0.0961 µg/mL and 0.126 µg/mL and 0.127 µg/mL and 0.0921 µg/mL and 0.227 µg/mL and the “Plasma concentration” value ([3]; oral tapentadol valine carbamate 10 mg tapentadol free base equiv/kg, 1 h, mean) was 0.134 µg/mL. The “Plasma concentration” value ([3]; oral tapentadol valine carbamate 10 mg tapentadol free base equiv/kg, 2 h, individual animals 1-5) was 0.0318 µg/mL and 0.0713 µg/mL and 0.0589 µg/mL and 0.0494 µg/mL and 0.0879 µg/mL, the “Plasma concentration” value ([3]; oral tapentadol valine carbamate 10 mg tapentadol free base equiv/kg, 2 h, mean) was 0.0599 µg/mL and the “Plasma concentration” value ([3]; oral tapentadol valine carbamate 10 mg tapentadol free base equiv/kg, 3 h, individual animals 1-5) was 0.0107 µg/mL and 0.0231 µg/mL and 0.0252 µg/mL and 0.0164 µg/mL and 0.0221 µg/mL. For the same molecule, the “Plasma concentration” value ([3]; oral tapentadol valine carbamate 10 mg tapentadol free base equiv/kg, 3 h, mean) was 0.0195 µg/mL, the “Plasma concentration” value ([3]; oral tapentadol valine carbamate 10 mg tapentadol free base equiv/kg, 4 h, individual animals 1-5) was 0.00549 µg/mL and 0.0151 µg/mL and 0.0257 µg/mL and 0.0127 µg/mL and 0.00689 µg/mL and the “Plasma concentration” value ([3]; oral tapentadol valine carbamate 10 mg tapentadol free base equiv/kg, 4 h, mean) was 0.0132 µg/mL. The “Plasma concentration” value ([3]; oral tapentadol valine carbamate 10 mg tapentadol free base equiv/kg, 6 h, individual animals 1-5) was 0.0046 µg/mL and 0.01 µg/mL and 0.017 µg/mL and 0.00451 µg/mL and 0.00393 µg/mL, the “Plasma concentration” value ([3]; oral tapentadol valine carbamate 10 mg tapentadol free base equiv/kg, 6 h, mean) was 0.00801 µg/mL and the “Plasma concentration” value ([3]; oral tapentadol valine carbamate 10 mg tapentadol free base equiv/kg, 9 h, individual animals 1-5) was 0.00193 µg/mL and 0.00734 µg/mL and 0.00561 µg/mL and 0.00111 µg/mL and 0.00186 µg/mL. The “Plasma concentration” value ([3]; oral tapentadol valine carbamate 10 mg tapentadol free base equiv/kg, 9 h, mean) was 0.00357 µg/mL, the “Plasma concentration” value ([3]; oral tapentadol valine carbamate 10 mg tapentadol free base equiv/kg, 12 h, individual animals 1-5) was 0.000741 µg/mL and 0.00297 µg/mL and 0.00304 µg/mL and 0.000716 µg/mL and 0.000929 µg/mL and the “Plasma concentration” value ([3]; oral tapentadol valine carbamate 10 mg tapentadol free base equiv/kg, 12 h, mean) was 0.00168 µg/mL. The concentration at 0.083 h ([3]; male, cynomolgus monkey, plasma, iv, 0.5 mg tapentadol free base equiv/kg, i.v. tapentadol valine carbamate 0.5 mg tapentadol free base equiv/kg, 0.083 h, mean) was 0.969 µg/mL and the concentration at 0.25 h ([3]; male, cynomolgus monkey, plasma, iv, 0.5 mg tapentadol free base equiv/kg, i.v. tapentadol valine carbamate 0.5 mg tapentadol free base equiv/kg, 0.25 h, mean) was 0.711 µg/mL.
